Consider 9 molecules from PMC7409137, “Characterisation of Ovarian Cancer Cell Line NIH-OVCAR3 and Implications of Genomic, Transcriptomic, Proteomic and Functional DNA Damage Response Biomarkers for Therapeutic Targeting” (Cancers, 2020).

Each structure is given as a SMILES string. Where two headings read alike, the source gives them in different places.

Series [1] concerns p53 mutant CLL cells. The arrangement: method as in PMID 26312880. Particulars: cited from earlier work.
Series [2] deals with panel of cell lines, including the HCT116 p53 isogenic pair. The arrangement: method as in PMID 28062704. The settings on record: panel of cell lines incl. HCT116 p53 isogenic pair; cited from earlier work.
Series [3] concerns NIH-OVCAR3 cells. The experiment in a line: cells. The procedure: (§1) NIH-OVCAR3 cells were exposed to (A) VE-821 for 48 h, (B) carboplatin for 24 h or (C) rucaparib for 24 h. Media was replaced with drug free media for 21 days to allow colony formation. Data are the mean and standard deviation of at least three independent experiments. (D) Sensitivity of an additional 12 ovarian cancer cell lines to the three drugs was calculated in the same way and LC50 values were calculated. […] Data are pooled from 3 independent experiments per cell line.
(§2) Cells were plated into 6-well tissue culture dishes at low densities and allowed to adhere for 24 h before being treated for 24 h with carboplatin (0–50 µM) or rucaparib (0–30 µM), or 48 h with VE-821 (0–30 µM). DMSO concentration was kept constant at 0.5%, including no-drug control, for drugs dissolved in DMSO. Following treatment, the medium was removed and replaced with fresh drug-free medium to allow colony formation. The cells were fixed in methanol: acetic acid (3:1 v/v) and stained with 0.4% crystal violet. Colonies were counted and the % survival for each treatment was calculated from the relative plating efficiency of treated versus untreated controls.

In series [4] the test system is 12 ovarian cancer cell lines. The experiment in a line: Colony formation assay, panel of 12 other ovarian cancer cell lines (mean). How it is done:
NIH-OVCAR3 cells were exposed to (A) VE-821 for 48 h, (B) carboplatin for 24 h or (C) rucaparib for 24 h. Media was replaced with drug free media for 21 days to allow colony formation. Data are the mean and standard deviation of at least three independent experiments. […] […] Data are pooled from 3 independent experiments per cell line.
as §2

In series [5] the test system is HRR competent (HRC) cell lines. The experiment in a line: Colony formation assay, HRR competent cell lines. The procedure: as §1, §2
For series [6], the system named is BRCA1 mutant HRR defective (HRD) cell lines (COV362 and UWB1.289). In words: Colony formation assay, HRR defective cell lines. How it is done:
as §1, §2

Series [7] has as its system M059J and M059J-Fus1 cells. The arrangement: method as in PMID 22576130. Particulars: cited from earlier work.
For series [8], the system named is p53. In kind it is cell-based, human.
Series [9] relates to NIH-OVCAR3 cells. In words: Immunofluorescence based γH2AX-RAD51 foci assay. In kind it is cell-based, human. Particulars: 10 µM rucaparib, 48 h vs 0.5% DMSO. The procedure: Figure 4 Assessment of HRR and NHEJ in the NIH-OVCAR3 cells. (A) Cells were exposed to 0.5% DMSO (control) or 10 µM rucaparib for 48 h before being fixed and stained as per the protocol outlined in the methods. After imaging, the number of γH2AX and RAD51 foci per nucleus was calculated using ImageJ software, data points represent number of foci in an individual nucleus. The fold change in number of foci per nuclei between control and 10 µM rucaparib was then calculated. (B) Cells were co-transfected with pDRGFP and pCBASceI plasmids and analysed for the presence of GFP-positive cells 48 h post-transfection. % HRR activity was calculated by normalizing to the untransfected control. […] (C) Cells were co-transfected with pimEJ5GFP and pCBASceI plasmids and analysed for the presence of GFP-positive cells 48 h post-transfection. % NHEJ activity was calculated by normalizing to the untransfected control. […] [* p < 0.05; ** p < 0.005; **** p < 0.0001 (unpaired t-test)].
HRR was assessed by immunofluorescence. Cells were treated for 48 h with 10 μM rucaparib with 0.5% DMSO concentration for the untreated and treated cells. […] The number of γH2AX and RAD51 foci in each cell was quantified using ImageJ software and data was plotted using GraphPad Prism (GraphPad, San Diego, CA, USA).

The target of series [10] is T1, ATR (Homo sapiens, UniProt Q13535).
T1 construct: NIH-OVCAR3 cells and 9 other ovarian cancer cell lines were exposed to 4NQO ± VE-821 as indicated for 1 hr before western blotting; endogenous in cells
In words: ATR inhibition by western blot of pCHK1Ser345 after 4NQO, NIH-OVCAR3. The format is cell-based. How it is done:
(§3) (A) NIH-OVCAR3 cells and 9 other ovarian cancer cell lines were exposed to 4NQO ± VE-821 as indicated for 1 hr before western blotting. Chemiluminescence was quantified using Syngene software and expression of pCHK1Ser345 was normalised to vinculin expression. Western blot image is from a single representative experiment with pooled data from 3 independent experiments per cell line used to calculate the mean VE-821 IC50 and percentage inhibition at 1 µM VE-821. (B) Bar chart represents log-transformed read counts obtained from RNA-Seq data for each gene normalized to ACTB mRNA expression for NIH-OVCAR3 cells (black bars) and the mean mRNA expression of each gene across 12 cell lines (white bars) where each black dot represents one cell line. (C) Bar chart represents protein expression normalised to Ponceau-s staining calculated using ImageJ software in NIH-OVCAR3 cells (black bars) and the mean protein expression of each gene across 12 cell lines (white bars) where each black dot represents one cell line. Data are from a single experimental repeat. [PRKDC: DNA-PKcs, XRCC5: Ku80, XRCC6: Ku70]. […] Western blot of baseline protein expression in panel of ovarian cancer cell lines can be found at Figure S5.
For orientation: In western blotting, separated proteins are transferred to a membrane and probed.

The target in series [11] is T1, ATR. In words: ATR inhibition by western blot of pCHK1Ser345 after 4NQO, 9 other ovarian cancer cell lines. The format is cell-based. Particulars: mean of 9 ovarian cell lines. The procedure:
as §3

Series [12] deals with HCT116 p53 isogenic cell line pair. The arrangement: method as in PMID 30127241. The settings on record: cited from earlier work.
[13] abbreviates: ratio of LC50, colony formation.
The mark [14] stands for this setting: Homo sapiens, 24 h, read-out: Rucaparib LC50 ± SD.
Setting [15] is: Homo sapiens, 48 h, read-out: VE-821 LC50 ± SD.

T1 sequence (Q13535 whole entry): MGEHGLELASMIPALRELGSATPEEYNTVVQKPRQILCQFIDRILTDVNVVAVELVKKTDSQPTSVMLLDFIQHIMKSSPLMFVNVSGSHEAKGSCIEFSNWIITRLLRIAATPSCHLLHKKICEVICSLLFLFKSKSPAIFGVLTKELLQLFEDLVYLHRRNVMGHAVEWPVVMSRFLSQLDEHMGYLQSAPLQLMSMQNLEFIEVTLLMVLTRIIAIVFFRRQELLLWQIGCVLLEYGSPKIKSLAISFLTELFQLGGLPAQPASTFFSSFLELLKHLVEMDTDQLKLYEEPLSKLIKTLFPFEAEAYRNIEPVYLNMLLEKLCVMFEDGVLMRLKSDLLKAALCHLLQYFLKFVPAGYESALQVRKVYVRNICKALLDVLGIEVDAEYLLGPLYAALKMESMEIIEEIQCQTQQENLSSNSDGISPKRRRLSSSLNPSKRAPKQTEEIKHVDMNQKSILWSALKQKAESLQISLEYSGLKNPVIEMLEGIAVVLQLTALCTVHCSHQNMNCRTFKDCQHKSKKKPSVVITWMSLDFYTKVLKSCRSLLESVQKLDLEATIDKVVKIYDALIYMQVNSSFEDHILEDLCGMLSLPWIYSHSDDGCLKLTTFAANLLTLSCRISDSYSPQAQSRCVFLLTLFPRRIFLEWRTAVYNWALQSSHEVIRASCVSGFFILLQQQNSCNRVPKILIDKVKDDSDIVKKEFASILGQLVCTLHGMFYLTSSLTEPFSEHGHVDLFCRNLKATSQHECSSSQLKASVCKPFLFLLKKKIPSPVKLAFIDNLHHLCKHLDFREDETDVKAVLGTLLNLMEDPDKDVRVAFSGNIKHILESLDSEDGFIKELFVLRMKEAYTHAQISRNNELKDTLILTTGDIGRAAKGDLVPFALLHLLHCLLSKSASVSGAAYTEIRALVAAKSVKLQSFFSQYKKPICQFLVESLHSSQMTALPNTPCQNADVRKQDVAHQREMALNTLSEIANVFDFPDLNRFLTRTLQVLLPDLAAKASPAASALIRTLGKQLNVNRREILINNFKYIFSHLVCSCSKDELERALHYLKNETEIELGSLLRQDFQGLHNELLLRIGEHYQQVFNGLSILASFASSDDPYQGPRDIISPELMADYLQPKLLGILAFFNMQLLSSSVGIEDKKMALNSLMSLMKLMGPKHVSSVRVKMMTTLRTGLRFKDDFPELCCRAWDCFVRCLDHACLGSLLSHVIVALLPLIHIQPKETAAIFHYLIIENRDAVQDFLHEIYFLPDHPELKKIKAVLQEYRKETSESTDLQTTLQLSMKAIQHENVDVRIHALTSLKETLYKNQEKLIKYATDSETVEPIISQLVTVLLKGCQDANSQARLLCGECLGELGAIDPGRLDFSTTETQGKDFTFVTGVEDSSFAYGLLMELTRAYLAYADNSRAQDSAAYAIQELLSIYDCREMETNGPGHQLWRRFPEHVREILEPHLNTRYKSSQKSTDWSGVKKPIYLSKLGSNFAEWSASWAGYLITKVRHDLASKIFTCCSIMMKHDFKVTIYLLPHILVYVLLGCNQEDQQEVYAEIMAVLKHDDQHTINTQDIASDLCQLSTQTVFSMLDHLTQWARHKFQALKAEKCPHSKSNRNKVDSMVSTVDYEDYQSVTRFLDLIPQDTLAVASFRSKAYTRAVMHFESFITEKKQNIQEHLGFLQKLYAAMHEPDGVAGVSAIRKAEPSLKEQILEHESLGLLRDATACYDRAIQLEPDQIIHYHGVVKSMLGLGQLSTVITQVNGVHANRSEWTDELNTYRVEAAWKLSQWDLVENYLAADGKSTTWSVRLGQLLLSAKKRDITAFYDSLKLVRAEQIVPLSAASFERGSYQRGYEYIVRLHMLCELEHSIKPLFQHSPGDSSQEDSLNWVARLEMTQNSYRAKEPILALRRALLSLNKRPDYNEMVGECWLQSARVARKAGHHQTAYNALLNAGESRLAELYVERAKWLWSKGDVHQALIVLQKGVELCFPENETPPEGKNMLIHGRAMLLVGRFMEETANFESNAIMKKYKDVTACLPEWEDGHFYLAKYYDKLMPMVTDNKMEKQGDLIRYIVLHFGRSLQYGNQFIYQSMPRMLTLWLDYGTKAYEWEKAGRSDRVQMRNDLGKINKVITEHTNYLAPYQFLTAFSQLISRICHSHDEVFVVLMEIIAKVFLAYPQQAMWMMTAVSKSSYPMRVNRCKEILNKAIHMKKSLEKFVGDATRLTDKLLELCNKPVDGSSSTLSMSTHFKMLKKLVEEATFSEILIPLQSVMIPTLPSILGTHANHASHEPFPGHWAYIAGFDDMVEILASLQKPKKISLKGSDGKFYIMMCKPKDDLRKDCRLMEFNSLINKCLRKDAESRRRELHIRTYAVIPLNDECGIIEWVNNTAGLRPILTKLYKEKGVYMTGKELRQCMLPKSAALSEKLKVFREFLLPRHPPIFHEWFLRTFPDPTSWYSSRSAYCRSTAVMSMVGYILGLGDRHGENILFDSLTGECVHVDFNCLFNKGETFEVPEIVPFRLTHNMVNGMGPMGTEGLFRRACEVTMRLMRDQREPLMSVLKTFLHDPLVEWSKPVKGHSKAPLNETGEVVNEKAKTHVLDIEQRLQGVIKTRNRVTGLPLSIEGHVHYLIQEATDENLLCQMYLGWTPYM
T1 sequence (Q8WXE1 whole entry partner): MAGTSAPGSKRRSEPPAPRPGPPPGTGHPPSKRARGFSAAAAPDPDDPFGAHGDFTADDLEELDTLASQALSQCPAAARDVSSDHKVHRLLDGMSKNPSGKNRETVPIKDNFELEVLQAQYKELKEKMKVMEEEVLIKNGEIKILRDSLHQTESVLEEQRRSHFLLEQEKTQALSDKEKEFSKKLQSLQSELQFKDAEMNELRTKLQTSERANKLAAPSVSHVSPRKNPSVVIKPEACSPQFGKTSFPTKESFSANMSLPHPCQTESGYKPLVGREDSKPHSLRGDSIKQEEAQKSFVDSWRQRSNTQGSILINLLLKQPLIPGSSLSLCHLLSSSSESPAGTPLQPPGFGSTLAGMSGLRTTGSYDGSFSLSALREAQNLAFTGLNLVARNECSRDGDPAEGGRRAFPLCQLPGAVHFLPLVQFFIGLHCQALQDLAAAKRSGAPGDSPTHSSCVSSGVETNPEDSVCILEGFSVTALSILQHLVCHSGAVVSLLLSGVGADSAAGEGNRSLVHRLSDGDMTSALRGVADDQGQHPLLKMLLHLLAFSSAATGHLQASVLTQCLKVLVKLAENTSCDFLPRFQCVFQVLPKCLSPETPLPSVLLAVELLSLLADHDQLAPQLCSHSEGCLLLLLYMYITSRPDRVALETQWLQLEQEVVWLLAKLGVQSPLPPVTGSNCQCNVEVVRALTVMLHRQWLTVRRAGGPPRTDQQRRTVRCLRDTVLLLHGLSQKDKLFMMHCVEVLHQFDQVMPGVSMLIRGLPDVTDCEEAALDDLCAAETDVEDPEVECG

For the molecule `C[C@@H]1COCCN1c1cc(C2([S@](C)(=N)=O)CC2)nc(-c2cc[nH]c3nccc2-3)n1` [AZD6738], in series [1], the “Cytotoxicity in relation to p53 status” value is reported as “selectively cytotoxic towards p53 mutant CLL cells”. The “Sensitivity in relation to p53 status” value in series [2] was “independent of p53 status”.

As to `N.N.O=C([O-])C1(C(=O)[O-])CCC1.[Pt+2]` [Carboplatin], in series [3] (setting [13]), the “Fold more sensitive, NIH-OVCAR3 compared to the 12 ovarian cancer cell lines” value is listed as 5 fold. The CC50 in series [3] (read-out: Carboplatin LC50 ± SD, NIH-OVCAR3, 24 h exposure, then drug free media 21 days, colony formation) worked out at 1290 ± 340 nM; in series [4] (read-out: Carboplatin LC50 ± SD, mean of 12 ovarian cell lines, 24 h exposure, colony formation), 6120 ± 6180 nM; in [5] (read-out: Carboplatin LC50 ± SD, HRC cell lines, 24 h exposure, colony formation) it was 7.02 ± 7.09 µM; in series [6] (read-out: Carboplatin LC50 ± SD, HRD cell lines, 24 h exposure, colony formation), 1520 ± 940 nM.

Regarding `COc1cccc2c1C(=O)c1c(O)c3c(c(O)c1C2=O)C[C@@](O)(C(=O)CO)C[C@@H]3O[C@H]1C[C@H](N)[C@H](O)[C@H](C)O1` [Doxorubicin, doxorubicin], in [3] (100 nM doxorubicin), the “Fold higher percentage cell survival, NIH-OVCAR3 vs mean of the 12 ovarian cancer cell lines” value amounted to 1.4 fold. Further, the CC50 in [3] (Homo sapiens, OVCAR-3, read-out: Doxorubicin LC50 ± SD) was determined as 55 ± 1.97 nM; in series [4] (Homo sapiens, 24 h, read-out: Doxorubicin LC50 ± SD) it was 44.5 ± 15.5 nM. The “percentage cell survival at 100 nM” value in series [3] (NIH-OVCAR3, 100 nM doxorubicin) was ~ 17%; in series [7] (M059J-Fus1 cells, 100 nM doxorubicin), ~ 30%. In series [4] (mean of the 12 ovarian cancer cell lines, 100 nM doxorubicin), the “mean percentage cell survival at 100 nM” value is reported as ~ 12%. For the same molecule, the “Fold more sensitive, NHEJ-deficient M059J vs NHEJ-proficient M059J-Fus1 cells” value in series [7] is recorded as 20 fold.

In the case of `Nc1ccn([C@@H]2O[C@H](CO)[C@@H](O)C2(F)F)c(=O)n1` [Gemcitabine, gemcitabine], in series [3] (Homo sapiens, OVCAR-3, read-out: Gemcitabine LC50 ± SD), the CC50 amounted to 41.5 ± 1.2 nM. In addition, the Gemcitabine LC50 ± SD in series [4] came out at 28.7 nM.

With `COc1ccc(C2=N[C@@H](c3ccc(Cl)cc3)[C@@H](c3ccc(Cl)cc3)N2C(=O)N2CCNC(=O)C2)c(OC(C)C)c1` [Nutlin-3], the “Induction of MDM2 and p21 (indicators of p53 activation)” value in series [8] is “no induction of either MDM2 or p21”.

As to `CC(=O)O[C@H]1C(=O)[C@@]2(C)[C@H]([C@H](OC(=O)c3ccccc3)[C@]3(O)C[C@H](OC(=O)[C@H](O)[C@@H](NC(=O)c4ccccc4)c4ccccc4)C(C)=C1C3(C)C)[C@]1(OC(C)=O)CO[C@@H]1C[C@@H]2O` [Paclitaxel, paclitaxel], the CC50 amounted to 2.71 ± 0.08 nM in series [3] (Homo sapiens, OVCAR-3, read-out: Paclitaxel LC50 ± SD) and 3.37 ± 2.41 nM in [4] (Homo sapiens, 24 h, read-out: Paclitaxel LC50 ± SD).

Turning to `CNCc1ccc(-c2[nH]c3cc(F)cc4c3c2CCNC4=O)cc1` [Rucaparib, rucaparib], the CC50 is 410 ± 60 nM in series [3] (Homo sapiens, OVCAR-3, read-out: Rucaparib LC50 ± SD); 8800 ± 9580 nM in [4] (setting [14]); 10.5 ± 9.61 µM in series [5] (setting [14]); 280 ± 70 nM in series [6] (setting [14]). In addition, in [3] (setting [13]), the “Fold more sensitive, NIH-OVCAR3 compared to HRR competent (HRC) cell lines” value is on record as 26 fold. In addition, in [3] (setting [13]), the “Fold more sensitive, NIH-OVCAR3 compared to the 12 ovarian cancer cell lines” value is 21 fold. The RAD51 foci formation entry in series [9] is “increase in RAD51 foci formation”. Besides, in series [9], the γH2AX foci formation result is listed as “induction in γH2AX foci”.

`CC[C@@]1(O)C(=O)OCc2c1cc1n(c2=O)Cc2cc3c(CN(C)C)c(O)ccc3nc2-1` [Topotecan, topotecan]: the CC50 came to 7.2 ± 0.36 nM in series [3] (Homo sapiens, OVCAR-3, read-out: Topotecan LC50 ± SD) and 15.6 ± 9.32 nM in series [4] (Homo sapiens, 24 h, read-out: Topotecan LC50 ± SD).

By IC50 is commonly meant the point on the concentration scale where inhibition reaches its midpoint. One may read the inhibition as the change of the read-out against control, counted positive when it falls. Take `CS(=O)(=O)c1ccc(-c2cnc(N)c(C(=O)Nc3ccccc3)n2)cc1` [VE-821]: the CC50 in series [3] (Homo sapiens, OVCAR-3, read-out: VE-821 LC50 ± SD) was found to be 17900 ± 4560 nM; in series [4] (setting [15]), 1580 ± 1120 nM; in [5] (setting [15]) it was 1.68 ± 1.19 µM; in series [6] (setting [15]) it was 1010 ± 500 nM. For the same molecule, the “Fold more resistant, NIH-OVCAR3 compared to panel of 12 ovarian cancer cell lines” value in series [3] (setting [13]) came to 11 fold. The IC50 in series [10] (4NQO ± VE-821 for 1 hr, western blot, normalised to vinculin, read-out: VE-821 IC50 ± SD (ATR inhibition, pCHK1Ser345)) is 310 ± 270 nM; in [11] (4NQO ± VE-821 for 1 hr, western blot, read-out: VE-821 IC50 ± SD (ATR inhibition, pCHK1Ser345)), 380 ± 200 nM. Moreover, the inhibition at 1 µM in series [10] (OVCAR-3, 1 μM VE-821, 4NQO, 1 hr, pCHK1Ser345, read-out: ATR Inhibition at 1 μM VE-821 ± SD) is 81 ± 5.29%; in series [11] (1 μM VE-821, 4NQO, 1 hr, pCHK1Ser345, read-out: ATR Inhibition at 1 μM VE-821 ± SD), 78.1 ± 13.4%. Besides, the “Difference in sensitivity to single agent between p53 isogenic cells” value in [12] is “no difference in sensitivity”.
